Reference: patent US10981932B2, “Macrocyclic indole derivatives” (Bayer Aktiengesellschaft, priority 2016, dated 2021)
Structures can show the parent of a compound that is named as a salt. Where two headings read alike, the source gives them in different places.

Key:
[1] = tested on: SUDHL5; assay: Anti-proliferative effect (CellTiter-Glo, 72 h), SUDHL5; format: cell-based; conditions: SUDHL5 cells, antiproliferation, 72 h incubation, median, read-out: Antiproli SUDHL5 [M] (median)
Summary of the method: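 72 h compound treatment, 37 °C humidified; CellTiter-Glo added, 10 min incubation, luminescence read; day 0 plate read in parallel for baseline.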

[2] = molecular target: MCL-1 (Homo sapiens, UniProt Q07820); assay: Protein-protein interaction assay MCL-1/Noxa BH3 peptide (MCL-1 assay), TR-FRET; format: binding; conditions: MBP-MCL-1 / Noxa BH3-derived peptide, median
Summary of the method: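 IC50 came from a 4-parameter fit of the normalized 665/620 nm TR-FRET ratio (anti-MBP Eu-cryptate/streptavidin-XL665). Compounds (0.1 nM–20 μM, duplicates) were preincubated 10 min at 22 °C with 1 nM MBP-MCL-1 in pH 7 Tris/NaCl/KF buffer, then read after 1 h at 22 °C plus overnight at 4 °C.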

Chain of MCL-1 (Q07820 whole entry): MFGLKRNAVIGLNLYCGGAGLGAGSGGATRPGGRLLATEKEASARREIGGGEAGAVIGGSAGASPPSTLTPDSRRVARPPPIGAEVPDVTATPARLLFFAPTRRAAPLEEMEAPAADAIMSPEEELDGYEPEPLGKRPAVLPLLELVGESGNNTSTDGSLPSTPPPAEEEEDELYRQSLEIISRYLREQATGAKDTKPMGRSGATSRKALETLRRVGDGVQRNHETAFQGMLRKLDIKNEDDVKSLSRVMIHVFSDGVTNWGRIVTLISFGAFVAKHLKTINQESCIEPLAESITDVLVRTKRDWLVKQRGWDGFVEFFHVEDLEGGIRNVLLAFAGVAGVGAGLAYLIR

SMILES	IC50 [1] [M]	IC50 [2] [nM]	IC50 ([1]; Homo sapiens, SU-DHL-5, 72 h) [M]
Cc1ccc2c(CCCOc3cccc4ccccc34)c(C(=O)O)n3c2c1-c1c(nn(C)c1C)CN(C)CCC3 (single isomer, unassigned; enantiomer 1) [Example 073, 7,10,11,12-tetramethyl-1-[3-(naphthalen-1-yloxy)propyl]-4,5,6,7,8,10-hexahydropyrazolo[3′,4′:7,8][1,5]diazecino[9,10,1-hi]indole-2-carboxylic Acid (Enantiomer 1)]	3.23e-06	2.06	–
CCn1nc2c(c1C1CC1)-c1cccc3c(CCCOc4cccc5ccccc45)c(C(=O)O)n(c13)CCCCOC2 (single isomer, unassigned; enantiomer 1) [Example 082, 3-cyclopropyl-2-ethyl-7-[3-(naphthalen-1-yloxy)propyl]-2,10,11,12,13,15-hexahydropyrazolo[4′,3′:9,10][1,6]oxazacycloundecino[8,7,6-hi]indole-8-carboxylic acid-N-ethylethanamine Salt (Enantiomer 1)]	–	4.37	1.81e-05
COCCn1nc2c(c1C1CC1)-c1cccc3c(CCCOc4cccc5ccccc45)c(C(=O)O)n(c13)CCCCOC2 (single isomer, unassigned; enantiomer 1) [Example 085, 3-Cyclopropyl-2-(2-methoxyethyl)-7-[3-(naphthalen-1-yloxy)propyl]-2,10,11,12,13,15-hexahydropyrazolo[4′,3′:9,10][1,6]oxazacycloundecino[8,7,6-hi]indole-8-carboxylic acid-N-ethylethanamine Salt (Enantiomer 1)]	6.22e-06	4.51	–
Cc1c2c(nn1C1CC1)COCCCCn1c(C(=O)O)c(CCCOc3cccc4ccccc34)c3cccc-2c31 (single isomer, unassigned; enantiomer 1) [Example 093, 2-cyclopropyl-3-methyl-7-[3-(naphthalen-1-yloxy)propyl]-2,10,11,12,13,15-hexahydropyrazolo[4′,3′:9,10][1,6]oxazacycloundecino[8,7,6-hi]indole-8-carboxylic acid-N-ethylethanamine Salt (Enantiomer 1)]	3.38e-06	1.19	–
COCCn1nc2c(c1C)-c1cccc3c(CCCOc4cccc5ccccc45)c(C(=O)O)n(c13)CCCCOC2 (single isomer, unassigned; enantiomer 1) [Example 107, 2-(2-methoxyethyl)-3-methyl-7-[3-(naphthalen-1-yloxy)propyl]-2,10,11,12,13,15-hexahydropyrazolo[4′,3′:9,10][1,6]oxazacycloundecino[8,7,6-hi]indole-8-carboxylic acid-N-ethylethanamine Salt (Enantiomer 1)]	3.82e-06	1.71	–
CCc1c2c(nn1C)CN(C)CCCn1c(C(=O)O)c(CCCOc3cccc4ccccc34)c3ccc(C)c-2c31 (single isomer, unassigned; enantiomer 1) [Example 145, 11-Ethyl-7,10,12-trimethyl-1-[3-(1-naphthyloxy)propyl]-4,5,6,7,8,10-hexahydropyrazolo[3′,4′:7,8][1,5]diazecino[9,10,1-hi]indole-2-carboxylic acid-N-ethylethanamine Salt (Enantiomer 1)]	1.85e-06	1.17	–
CCc1c2c(nn1C)COCCCCn1c(C(=O)O)c(CCCOc3cccc4ccccc34)c3cccc-2c31 (single isomer, unassigned; enantiomer 1) [Example 148, 3-Ethyl-2-methyl-7-[3-(1-naphthyloxy)propyl]-2,10,11,12,13,15-hexahydropyrazolo[4′,3′:9,10][1,6]oxazacycloundecino[8,7,6-hi]indole-8-carboxylic acid-N-ethylethanamine Salt (Enantiomer 1)]	2.56e-06	0.919	–
CCc1c2c(nn1C)COCCCCn1c(C(=O)O)c(CCCOc3cccc4ccccc34)c3ccc(C)c-2c31 (single isomer, unassigned; enantiomer 1) [Example 154, 3-Ethyl-2,4-dimethyl-7-[3-(1-naphthyloxy)propyl]-2,10,11,12,13,15-hexahydropyrazolo[4′,3′:9,10][1,6]oxazacycloundecino[8,7,6-hi]indole-8-carboxylic acid-N-ethylethanamine Salt (Enantiomer 1)]	2.26e-06	1.28	–
Cn1nc(COc2ccc(N3CCN(S(C)(=O)=O)CC3)cc2)c2c1COCCCCn1c(C(=O)O)c(CCCOc3cccc4ccccc34)c3cccc-2c31 (single isomer, unassigned; enantiomer 2) [Example 1-10, 1-methyl-3-({4-[4-(methylsulfonyl)piperazin-1-yl]phenoxy}methyl)-7-[3-(naphthalen-1-yloxy)propyl]-1,10,11,12,13,15-hexahydropyrazolo[4′,3′:9,10][1,6]oxazacycloundecino[8,7,6-hi]indole-8-carboxylic acid (enantiomer 2)]	1.26e-06	0.93	–
Cn1nc(COc2ccc(N3CCN(S(=O)(=O)C4CC4)CC3)cc2)c2c1COCCCCn1c(C(=O)O)c(CCCOc3cccc4ccccc34)c3cccc-2c31 (single isomer, unassigned; enantiomer 2) [Example 1-13, 3-({4-[4-(cyclopropylsulfonyl)piperazin-1-yl]phenoxy}methyl)-1-methyl-7-[3-(naphthalen-1-yloxy)propyl]-1,10,11,12,13,15-hexahydropyrazolo[4′,3′:9,10][1,6]oxazacycloundecino[8,7,6-hi]indole-8-carboxylic Acid (Enantiomer 2)]	7.58e-07	0.796	–
COCc1nn(C)c2c1-c1cccc3c(CCCOc4cccc5ccccc45)c(C(=O)O)n(c13)CCCN(C)C2 (single isomer, unassigned; enantiomer 2) [Example 1-104, 11-(methoxymethyl)-7,9-dimethyl-1-[3-(1-naphthyloxy)propyl]-4,5,6,7,8,9-hexahydropyrazolo[3′,4′:7,8][1,5]diazecino[9,10,1-hi]indole-2-carboxylic Acid (Enantiomer 2)]	3.62e-06	3.55	–
Cc1nn(C)c2c1-c1cccc3c(CCCOc4ccc(F)c5ccccc45)c(C(=O)O)n(c13)CCCCOC2 (single isomer, unassigned; enantiomer 2) [Example 023, 7-{3-[(4-fluoronaphthalen-1-yl)oxy]propyl}-1,3-dimethyl-1,10,11,12,13,15-hexahydropyrazolo[4′3′:9,10][1,6]oxazacycloundecino[8,7,6-hi]indole-8-carboxylic acid-N-ethylethanamine Salt (Enantiomer 2)]	4.32e-06	1.69	–
Cc1c2c(nn1CCN1CCOCC1)CN(C)CCCn1c(C(=O)O)c(CCCOc3cccc4ccccc34)c3cccc-2c31 (single isomer, unassigned; enantiomer 2) [Example 061, 7,11-dimethyl-10-[2-(morpholin-4-yl)ethyl]-1-[3-(naphthalen-1-yloxy)propyl]-4,5,6,7,8,10-hexahydropyrazolo[3′,4′:7,8][1,5]diazecino[9,10,1-hi]indole-2-carboxylic Acid (Enantiomer 2)]	8.04e-06	32.2	–
Cc1ccc2c(CCCOc3cccc4ccccc34)c(C(=O)O)n3c2c1-c1c(nn(C)c1C)CN(C)CCC3 (single isomer, unassigned; enantiomer 2) [Example 074, 7,10,11,12-tetramethyl-1-[3-(naphthalen-1-yloxy)propyl]-4,5,6,7,8,10-hexahydropyrazolo[3′,4′:7,8][1,5]diazecino[9,10,1-hi]indole-2-carboxylic Acid (Enantiomer 2)]	1.14e-05	26.9	–
